Experimental data: patent US5912266A, “Beta2 integrin cell adhesion molecule inhibitors” (American Home Products Corporation, priority 1997, dated 1999)
Where “and” joins values, the source holds several entries; their conditions need not be identical. Equal values may be shown once.

System: β1 integrin
Experiment: Adhesion of activated, β1 integrin-expressing U937 cells to human fibronectin
Type: cell-based
Settings: for Percent Cells Bound: single well
Procedure: U937 cells, a human monocyte-like, histiocytic lymphoma cell line, was acquired from American Type Culture Collection (ATCC No. CRL-1593). The cells were grown in the culture media described in Example I, materials. Cells were subcultured when the cell density was approximately 1×10^6 cells per ml. The β1 integrins on U937 cells were activated to bind to fibronectin by the addition of PMN Buffer, described in Example I. The human fibronectin (Gibco, No. XOO1) was diluted to 3.5 μg/ml with dPBS. A 1% Bovine Serum Albumin (BSA; Fraction V, ICN Corp., No. 810032) solution was prepared in dPBS and was sterile filtered using a […] disposable filter apparatus (Corning No. 25932-200) before use. The 1% BSA solution was used for blocking non-specific binding sites on the plastic wells of the assay plate. The assay plates used were Corning 96-well EIA/RIA plates (No. 25801).
350 ng of human fibronectin contained in 100 μl of dPBS was added to wells of the assay plate. The control wells were filled with dPBS only. The assay plate was incubated at room temperature for exactly two hours to allow the fibronectin to bind to the assay wells. The fibronectin solution was aspirated from the wells of the assay plate and the wells were washed 3× with 200 μl/well of dPBS. The assay wells were filled with the 1% BSA solution. Additional wells, not coated with fibronectin, were also filled with the 1% BSA solution; these wells were used to measure non-specific cell adherence to the plastic assay plate. The assay plate was incubated for 30 minutes at room temperature. The 1% BSA solution was removed from the wells of the assay plate by aspiration using a multichannel pipettor. The assay wells were washed 3× with 200 μl/well of dPBS. Approximately 50 μl of dPBS was added to the assay wells to ensure that they would not dry out prior to the initiation of the assay.
U937 cells were harvested from culture, washed and labeled with calcein AM fluorescent dye as outlined in Example I, except that the concentration of calcein used to label U937 cells was 12.5 μM and cells were sedimented by centrifugation at 1000 rpm for 5 minutes. After the final wash (see Example I), the U937 cells were resuspended in ice-cold PMN Buffer to 1.25×10^5 cells/40 μl. The cell suspension was placed in the dark at room temperature until needed. The asperlin solutions were prepared as described in Example I.
The 50 μl of dPBS remaining in the wells of the assay plate was removed by inverting the assay plate and tapping on paper toweling. 50 μl of the serially diluted asperlin solution was added to wells of the assay plate. Control wells received PMN buffer containing 2% DMSO and the assay plate was incubated for 10 minutes at room temperature.
Calcein labeled cells, that had been gently mixed by swirling, were added to the wells in 40 μl volumes equal to 1.25×10^5 cells/well and 10 μl of PMA solution was immediately added to the wells of the assay plate and the assay was continued as described in Example 1. 100 μl of PMN buffer was added to all wells of the assay plate. The fluorescence of the adherent, activated β1 integrin expressing cells was measured using a fluorescent plate reader, as described in Example I.
The percentage of β1 integrin expressing cells adhering to fibronectin coated wells was quantitated by the equation: % Cells Bound=((Bound Cell Fluorescence-Average Bound Fluorescence of the Non-specific Binding Control).div.Total Cell Fluorescence)×100.

## CC(=O)OC1C=CC(=O)OC1C1OC1C [Asperlin, 6,7-Anhydro-2,3,8-trideoxy-D-galacto-oct-2-enoic acidδ-lactone 4-acetate]
Asperlin 1.56 μg/ml
  % Inhibition Cell Adhesion: -9%
  Average Percent Bound: 75%
  Bound Cell Fluorescence: 3002 fluorescence units/well and 3140 fluorescence units/well and 3132 fluorescence units/well
  Percent Cells Bound: 75% and 76% and 74%
Asperlin 3.125 μg/ml
  % Inhibition Cell Adhesion: -9%
  Average Percent Bound: 75%
  Bound Cell Fluorescence: 3132 fluorescence units/well and 3140 fluorescence units/well and 2895 fluorescence units/well
  Percent Cells Bound: 76% and 75% and 73%
Asperlin 6.25 μg/ml
  % Inhibition Cell Adhesion: 10%
  Average Percent Bound: 62%
  Bound Cell Fluorescence: 2292 fluorescence units/well and 2344 fluorescence units/well and 2529 fluorescence units/well
  Percent Cells Bound: 60% and 65%
Asperlin 12.5 μg/ml
  % Inhibition Cell Adhesion: -1%
  Average Percent Bound: 70%
  Bound Cell Fluorescence: 2331 fluorescence units/well and 2683 fluorescence units/well and 2985 fluorescence units/well
  Percent Cells Bound: 64% and 71% and 74%
Asperlin 25 μg/ml
  % Inhibition Cell Adhesion: 0%
  Average Percent Bound: 69%
  Bound Cell Fluorescence: 2404 fluorescence units/well and 2870 fluorescence units/well and 2969 fluorescence units/well
  Percent Cells Bound: 61% and 71% and 75%
Asperlin 50 μg/ml
  % Inhibition Cell Adhesion: -6%
  Average Percent Bound: 73%
  Bound Cell Fluorescence: 2391 fluorescence units/well and 2791 fluorescence units/well and 3203 fluorescence units/well
  Percent Cells Bound: 68% and 74% and 77%
Asperlin 100 μg/ml
  % Inhibition Cell Adhesion: 0%
  Average Percent Bound: 69%
  Bound Cell Fluorescence: 2466 fluorescence units/well and 2854 fluorescence units/well and 3194 fluorescence units/well
  Percent Cells Bound: 61% and 70% and 75%
Asperlin 200 μg/ml
  % Inhibition Cell Adhesion: 3%
  Average Percent Bound: 67%
  Bound Cell Fluorescence: 2222 fluorescence units/well and 2736 fluorescence units/well and 2846 fluorescence units/well
  Percent Cells Bound: 61% and 68% and 71%
Summary of Table II
  Effect on adhesion of β1 integrin expressing cells to fibronectin (in words): does not block the adhesion of β1 integrin expressing cells to fibronectin
